We go through 10 molecules from patent US5514814A, “Pyrrolinone-based compounds” (Trustees of the University of Pennsylvania, priority 1994, dated 1996).

The first assay concerns the target T1, HIV-1 protease (Human immunodeficiency virus type 1 group M subtype B, UniProt P12497).
T1 construct: HIV-1 protease purified generally according to Heimbach; made in house
Description: Inhibition of purified HIV-1 protease (IC50). The note with it: HIV-1 protease purified generally according to Heimbach, et al. The assay is classed as biochemical. As to the method:
The extent to which the compounds of the invention for inhibit and prevent the spread of HIV-1 protease was determined generally according to the methods disclosed by Thompson, et al., J. Med. Chem. 1992, 35, 1685. IC50 and CIC95 values were determined using HIV-1 protease purified generally according to Heimbach, et al., Biochem. Biophys. Res. Commun. 1989, 164, 955.
With `CC(C)C[C@@]1(C2=CN[C@@](Cc3ccccc3)(C[C@H](O)[C@H](Cc3ccccc3)NC(=O)O[C@H]3CCOC3)C2=O)NC=C([C@@H](Cc2ccccc2)C(=O)NC(C)(C)C)C1=O` [(53)], the IC50 – broadly, the concentration that gives 50% inhibition – was 3.3 nM.

The molecule `COC(=O)[C@H](Cc1ccccc1)C1=CN[C@@](CC(C)C)(C2=CN[C@@](Cc3ccccc3)(C[C@H](O)[C@H](Cc3ccccc3)NC(=O)O[C@H]3CCOC3)C2=O)C1=O` [(58)] came in with an IC50 of 2 nM.

Turning to `COC(=O)[C@H](Cc1ccccc1)C1=CN[C@@](CC(C)C)(C2=CN[C@@](Cc3ccccc3)(C[C@H](O)[C@H](Cc3ccccc3)NC(=O)OC(C)(C)C)C2=O)C1=O` [(59)], the IC50 was found to be 37 nM.

In turn, `CC(C)CC1(C2=CNC(Cc3ccccc3)(CC(O)C(Cc3ccccc3)NC(=O)OC(C)(C)C)C2=O)NC=C(C(Cc2ccccc2)C(N)=O)C1=O` (stereo not shown) [(11)] showed a half-maximal inhibitory concentration (IC50) of 10 nM.

`O=C(N[C@@H](Cc1ccccc1)[C@@H](O)C[C@]1(Cc2ccccc2)NC=C([C@H]2c3ccccc3C[C@H]2O)C1=O)O[C@H]1CCOC1` [(67)] gave an IC50 of 2 nM.

The molecule `CC(C)C[C@@]1(C2=CN[C@@](Cc3ccccc3)(C[C@H](O)[C@H](Cc3ccccc3)NC(=O)OC(C)(C)C)C2=O)NC=C([C@@H](Cc2ccccc2)C(=O)NC(C)(C)C)C1=O` [(54)] registered an IC50 of 48 nM.

The molecule `CC(C)(C)OC(=O)N[C@@H](Cc1ccccc1)[C@@H](O)C[C@]1(Cc2ccccc2)NC=C([C@H]2c3ccccc3C[C@H]2O)C1=O` [(68)] showed an IC50 of 11.9 nM. Compared with the last molecule, the IC50 is about 4-fold lower.

The molecule `CC(C)C[C@@]1(C2=CN[C@@](Cc3ccccc3)(C[C@H](O)[C@H](Cc3ccccc3)NC(=O)O[C@H]3CCOC3)C2=O)NC=C([C@@H](Cc2ccccc2)C(N)=O)C1=O` [(49)] had a concentration for half-maximal inhibition (IC50) of 1.3 nM.

In a further assay the test system is renin. In words: Effective renin inhibitor at stated concentration.
Conditions: not given
It is filed as biochemical.
As to `CC(C)=CCC1(Cc2ccccc2)NC=C(C(CC(C)C)C(=O)NC(CC2CCCCC2)C(O)C(O)CC(C)C)C1=O` [Structure (10a), 5(S)-prenyl-(5-benzyl)pyrrolin-4-one-3!-2(R)-isobutylacetate-1-amino-1(S)-cyclohexylmethyl-2(R)3 3 (S)-dihydroxy-5-methylhexane!-amide], the “found to act as an effective renin inhibitor at (concentration)” value came out at 700 nM.

Another assay has as its target HIV1 (Human immunodeficiency virus type 1 (NEW YORK-5 ISOLATE), UniProt P12497). In words: Effective HIV1 inhibitor at stated concentration.
Conditions: not given
The assay is classed as biochemical.
In the case of `CC(C)=CCC1(Cc2ccccc2)NC=C(C2(CC(C)C)NC=C(C(CC3CCCCC3)C(O)C(O)CC(C)C)C2=O)C1=O` (stereo not shown) [Structure (9a)], the “found to act as effective HIV1 inhibitor at (concentration)” value is 3.5 µM.
